Assay results from US9309222B2, “Phenyl linked quinolinyl modulators of RORγt” (Janssen Pharmaceutica NV, priority 2012, dated 2016).
Where “and” joins values, the source holds several entries; their conditions need not be identical. Identical values can stand only once. Counter-ions that a name gives are not always drawn.

Legend:
[1] = system: IL-17 production by CD4 T cells; test: Human Th17 assay (IL-17 production by CD4 T cells under Th17 differentiation conditions); format: cell-based; conditions: IL-17 in supernatant after 3 days
Procedure: The human Th17 assay tests the effect of RORγt modulatory compounds on IL-17 production by CD4 T cells under conditions which favor Th17 differentiation. Total CD4^+ T cells were isolated from the peripheral blood mononuclear cells (PBMC) of healthy donors using a CD4^+ T cell isolation kit II, following the manufacturer's instructions (Miltenyi Biotec). […] 50 μL of compound at titrated concentrations in DMSO were added into each well at final DMSO concentration at 0.2%. Cells were incubated for 1 hour, then 50 μL of Th17 cell differentiation medium was added to each well. The final concentrations of antibodies and cytokines (R&D Systems) in differentiation medium were: 3×10^6/mL anti-CD3/CD28 beads (prepared using human T cell activation/expansion kit, Miltenyi Biotec), 10 μg/mL anti-IL4, 10 μg/mL anti-IFNγ, 10 ng/mL IL113, 10 ng/mL IL23, 50 ng/mL IL6, 3 ng/mL TGFβ and 20 U/mL IL2. Cells were cultured at 37° C. and 5% CO2 for 3 days. Supernatants were collected and the accumulated IL-17 in culture was measured by using MULTI-SPOT® Cytokine Plate following manufacture's instruction (Meso Scale Discovery). The plate was read using Sector Imager 6000, and IL-17 concentration was extrapolated from the standard curve. The IC50s were determined by GraphPad.

[2] = molecular target: T1, human RORγt ligand binding domain (RORγt LBD) (Homo sapiens, UniProt P51449); test: RORγt ThermoFluor assay (thermal shift, ligand binding affinity); conditions: estimated from concentration response of thermal shift
T1 construct: His-tag (N); TurboTEV protease cleavage site (ENLYFQG) (N); made in house; host or cells: E. coli (pHIS1, modified pET vector)
T1 sequence (P51449 with tags, fused parts or gaps): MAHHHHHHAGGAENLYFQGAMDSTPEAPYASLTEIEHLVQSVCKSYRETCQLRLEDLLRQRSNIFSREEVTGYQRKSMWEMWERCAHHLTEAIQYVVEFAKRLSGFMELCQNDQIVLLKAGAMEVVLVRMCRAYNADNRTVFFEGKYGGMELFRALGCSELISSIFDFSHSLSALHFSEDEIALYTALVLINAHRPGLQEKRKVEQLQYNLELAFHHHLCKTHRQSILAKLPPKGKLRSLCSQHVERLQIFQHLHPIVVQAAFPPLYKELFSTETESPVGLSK
Procedure, shortened: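 Thermal shift of 0.065 mg/mL RORγt with 60 μM 1,8-ANS in 100 mM Hepes pH 7.0, 10 mM NaCl, 2.5 mM GSH, 0.002% Tween-20. Compounds in 1:2 series from 10 mM DMSO stock. Dye fluorescence (500 nm emission) tracked versus temperature; ΔTm used to derive KD.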

[3] = molecular target: T2, human RORγt LBD (Homo sapiens, UniProt P51449); test: RORγt reporter assay (GAL4-RORγt LBD luciferase in HEK293T cells); format: cell-based; conditions: for IC50 / RORγt reporter Assay, % inhibition @ 6 μM: HEK293T cells; for IC50: 24 hours compound treatment; for inhibition at 6 µM: HEK-293T, read-out: RORγt reporter Assay, % inhibition @ 6 μM, HEK293T cells, 6 μM compound; for RORγt reporter Assay, % inhibition @ 6 μM: 6 μM compound
T2 construct: expressed in transfected cells
T2 sequence (P51449 258-518): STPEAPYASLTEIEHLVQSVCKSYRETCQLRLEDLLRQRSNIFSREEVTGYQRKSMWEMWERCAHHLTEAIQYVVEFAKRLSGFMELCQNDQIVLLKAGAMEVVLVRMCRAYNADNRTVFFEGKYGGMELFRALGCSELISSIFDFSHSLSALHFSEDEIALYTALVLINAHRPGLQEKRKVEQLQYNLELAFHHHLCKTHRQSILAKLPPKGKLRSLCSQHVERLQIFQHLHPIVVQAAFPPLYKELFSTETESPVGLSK
Procedure, shortened: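 Read-out is the firefly-to-renilla luciferase ratio versus compound concentration, after 24 h compound exposure of cells in phenol-red-free DMEM/5% lipid-reduced FCS. Cells were HEK293T bulk-transfected with a GAL4-responsive firefly reporter (pGL4.31) and GAL4 DBD–wild-type human RORγt LBD fusion (pBIND, renilla as transfection/viability control).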

| Structure (SMILES) | Kd [2] [nM] | IC50 [1] [nM] | IC50 [3] | inhibition at 6 µM [3] [%] | RORγt reporter Assay, % inhibition @ 6 μM [3] [%] | IC50 ([1]; Homo sapiens, CD4+ T, 72 h) [nM] |
| --- | --- | --- | --- | --- | --- | --- |
| Cn1cncc1C(O)(c1ccc(Cl)cc1)c1ccc2nc(Cl)c(-c3ccccc3)c(Cl)c2c1 (racemic) [Example 119a, (4-Chlorophenyl)(2,4-dichloro-3-phenylquinolin-6-yl)(1-methyl-1H-imidazol-5-yl)methanol] |  |  |  |  |  | 1800 |
| Cn1cncc1C(O)(c1ccc(Cl)cc1)c1ccc2nc(Cl)c(-c3ccccc3)c(Cl)c2c1 (single isomer, unassigned) [Example 119b, (4-Chlorophenyl)(2,4-dichloro-3-phenylquinolin-6-yl)(1-methyl-1H-imidazol-5-yl)methanol] |  | 15000 |  |  |  |  |
| Cn1cncc1C(O)(c1ccc(Cl)cc1)c1ccc2nc(Cl)c(-c3ccccc3)c(Cl)c2c1 (single isomer, unassigned) [Example 119c, (4-Chlorophenyl)(2,4-dichloro-3-phenylquinolin-6-yl)(1-methyl-1H-imidazol-5-yl)methanol] |  |  |  |  |  | 700 |
| OC(c1ccccc1)(c1cccnc1)c1ccc2nc(Cl)c(-c3ccccc3)c(Cl)c2c1 (stereo not drawn) [Example 2, (2,4-Dichloro-3-phenylquinolin-6-yl)(phenyl)(pyridin-3-yl)methanol] |  | ~700 |  |  |  | 620 |
| Cn1cncc1C(O)(c1ccncc1)c1ccc2nc(Cl)c(-c3ccccc3)c(Cl)c2c1 (stereo not drawn) [Example 16, (2,4-Dichloro-3-phenylquinolin-6-yl)(1-methyl-1H-imidazol-5-yl)(pyridin-4-yl)methanol] |  |  |  |  |  | 130 |
| CN(C)c1nc2ccc(C(O)(c3ccncc3)c3cncn3C)cc2c(Cl)c1-c1ccccc1 (stereo not drawn) [Example 48a, (4-Chloro-2-(dimethylamino)-3-phenylquinolin-6-yl)(1-methyl-1H-imidazol-5-yl)pyridin-4-ylmethanol•TFA] |  |  |  |  |  | 19 |
| Cn1cncc1C(O)(c1cccnc1)c1ccc2nc(Cl)c(-c3ccccc3)c(Cl)c2c1 (stereo not drawn) [Example 49, (2,4-Dichloro-3-phenylquinolin-6-yl)(1-methyl-1H-imidazol-5-yl)(pyridin-3-yl)methanol] |  |  |  |  |  | 410 |
| Cc1cc(C(O)(c2ccc3nc(Cl)c(-c4ccccc4)c(Cl)c3c2)c2cncn2C)ccn1 (stereo not drawn) [Example 67, (2,4-Dichloro-3-phenylquinolin-6-yl)(1-methyl-1H-imidazol-5-yl)(2-methylpyridin-4-yl)methanol•TFA] |  |  |  |  |  | 27 |
| Cn1cncc1C(O)(c1ccnc(F)c1)c1ccc2nc(Cl)c(-c3ccccc3)c(Cl)c2c1 (stereo not drawn) [Example 86, (2,4-Dichloro-3-phenylquinolin-6-yl)(2-fluoropyridin-4-yl)(1-methyl-1H-imidazol-5-yl)methanol•TFA] |  |  |  |  |  | 37 |
| Cc1nc(C)c(C(O)(c2ccc3nc(Cl)c(-c4ccccc4)c(Cl)c3c2)c2cncn2C)s1 (stereo not drawn) [Example 143, (2,4-Dichloro-3-phenylquinolin-6-yl)(2,4-dimethylthiazol-5-yl)(1-methyl-1H-imidazol-5-yl)methanol] |  |  |  |  |  | 20 |
| Cn1cncc1C(O)(c1ccncc1)c1cc(F)c2nc(Cl)c(-c3ccccc3)c(Cl)c2c1 (stereo not drawn) [Example 155, (2,4-Dichloro-8-fluoro-3-phenylquinolin-6-yl)(1-methyl-1H-imidazol-5-yl)(pyridin-4-yl)methanol•TFA] | 68 |  | 110 nM | 96 |  |  |
| Cc1ccc(C(O)(c2cc(C)c3nc(Cl)c(-c4ccccc4)c(Cl)c3c2)c2cncn2C)cn1 (stereo not drawn) [Example 156, (2,4-Dichloro-8-methyl-3-phenylquinolin-6-yl)(1-methyl-1H-imidazol-5-yl)(6-methylpyridin-3-yl)methanol•TFA] | 57 |  | 320 nM | 98 |  |  |
| Cn1cncc1C(O)(c1ccncc1)c1ccc2nc(Cl)c(-c3ccccc3)c(Cl)c2c1F (stereo not drawn) [Example 162, (2,4-Dichloro-5-fluoro-3-phenylquinolin-6-yl)(1-methyl-1H-imidazol-5-yl)(pyridin-4-yl)methanol•TFA] | 200 |  | 910 nM | 92 |  |  |
| Cn1cncc1C(O)(c1ccc(Cl)cc1)c1ccc2nc(Cl)c(-c3ccccc3)c(Cl)c2c1F (stereo not drawn) [Example 163, (4-Chlorophenyl)(2,4-dichloro-5-fluoro-3-phenylquinolin-6-yl)(1-methyl-1H-imidazol-5-yl)methanol•TFA] | 1200 |  | 1400 nM | 87 |  |  |
| OC(c1ccccc1)(c1ccc2nc(C(F)(F)F)c(-c3ccccc3)c(C(F)(F)F)c2c1)C1CCNCC1 (stereo not drawn) [Example 167, Phenyl(3-phenyl-2,4-bis(trifluoromethyl)quinolin-6-yl)(piperidin-4-yl)methanol•TFA] | 400 |  | > 6000 nM | 62 |  |  |
| CCN1CCC(C(O)(c2ccccc2)c2ccc3nc(C(F)(F)F)c(-c4ccccc4)c(C(F)(F)F)c3c2)CC1 (stereo not drawn) [Example 168, (1-Ethylpiperidin-4-yl)(phenyl)(3-phenyl-2,4-bis(trifluoromethyl)quinolin-6-yl)methanol•TFA] | 3300 |  | ~6000 nM | 71 |  |  |
| Cn1cncc1C(O)(c1ccc(C(F)(F)F)nc1)c1ccc2nc(C(F)(F)F)c(-c3ccccc3)c(Cl)c2c1 (stereo not drawn) [Example 172, (4-Chloro-3-phenyl-2-(trifluoromethyl)quinolin-6-yl)(1-methyl-1H-imidazol-5-yl)(6-(trifluoromethyl)pyridin-3-yl)methanol•TFA] | 4.6 |  | 140 nM | 96 |  |  |

Now from value to molecule, other results behind:

| Kd [2] [nM] | IC50 [1] [nM] | IC50 [3] | inhibition at 6 µM [3] [%] | RORγt reporter Assay, % inhibition @ 6 μM [3] [%] | Structure (SMILES) | IC50 ([1]; Homo sapiens, CD4+ T, 72 h) [nM] |
| --- | --- | --- | --- | --- | --- | --- |
| 71 | ~700 | 230 nM and ~400 nM | 96 |  | Cn1cncc1C(O)(c1ccc(Cl)cc1)c1ccc2nc(Cl)c(-c3ccccc3Cl)c(Cl)c2c1 (racemic) [Example 153a, (4-Chlorophenyl)(2,4-dichloro-3-(2-chlorophenyl)quinolin-6-yl)(1-methyl-1H-imidazol-5-yl)methanol] | 480 |
| 8.1 |  | 72 nM | 96 |  | CC(=O)N1CCC(C(O)(c2ccccc2)c2ccc3nc(C(F)(F)F)c(-c4ccccc4)c(C(F)(F)F)c3c2)CC1 (racemic) [Example 169a, 1-(4-(Hydroxy(phenyl)(3-phenyl-2,4-bis(trifluoromethyl)quinolin-6-yl)methyl)piperidin-1-yl)ethanone] | 66 |
| 270 | 1600 | 690 nM |  | 93 | Cn1cncc1C(O)(c1ccc(Cl)cc1)c1ccc2nc(Cl)c(-c3ccccc3Cl)c(Cl)c2c1 (single isomer, unassigned) [Example 153b, (4-Chlorophenyl)(2,4-dichloro-3-(2-chlorophenyl)quinolin-6-yl)(1-methyl-1H-imidazol-5-yl)methanol] |  |
| 19 | 250 | 140 nM |  | 96 | Cn1cncc1C(O)(c1ccc(Cl)cc1)c1ccc2nc(Cl)c(-c3ccccc3Cl)c(Cl)c2c1 (single isomer, unassigned) [Example 153c, (4-Chlorophenyl)(2,4-dichloro-3-(2-chlorophenyl)quinolin-6-yl)(1-methyl-1H-imidazol-5-yl)methanol] |  |
|  |  |  |  | 95 | Cn1cncc1C(O)(c1ccc(C(F)(F)F)nc1)c1ccc2nc(C(F)(F)F)c(-c3ccccc3)c(C#N)c2c1 (single isomer, unassigned) [Example 173c, 6-(Hydroxy(1-methyl-1H-imidazol-5-yl)(6-(trifluoromethyl)pyridin-3-yl)methyl)-3-phenyl-2-(trifluoromethyl)quinoline-4-carbonitrile] | 130 |
